Reference: patent US20240041898A9, “NEUROSTEROIDS AND ENANTIOMERS THEREOF FOR THE PREVENTION AND TREATMENT OF NEURODEGENERATIVE CONDITIONS” (priority 2019, published 2024)
Values joined by “and” are separate entries in the source; they are usually repeats but may differ in a detail not shown here. Equal entries are not always repeated.

Key:
[1] = system: retinal ganglion cells (RGCs); test: Ex vivo pressure-loaded whole mounted retinas, NeuN-positive RGC survival; assay type: cell-based, rat; conditions: 75 mmHg, 1 μM; for RGC Survival (number of NeuN-positive cells), individual areas 1-5: single values
Description: Rat ex vivo Eyecup Preparation—Rat ex vivo eyecups were prepared from 28-32 day old male Sprague-Dawley rats (Charles River Laboratories International Inc., Wilmington, MA). The anterior half of the enucleated eyes was carefully removed to make eyecup preparations. Eyecups were placed at the bottom of a 100 ml glass beaker filled with aCSF (artificial cerebrospinal fluid) containing (in mM): 124 NaCl, 5 KCl, 2 MgSO4, 2 CaCl2, 1.25 NaH2PO4, 22 NaHCO3, and 10 glucose, and incubated at 30° C. for 24 hours using a closed pressure-loading system (FIG. 1C). pH was maintained at 7.35 to 7.40. In the closed-pressure system, a glass beaker with the eyecup was placed at the bottom of an acrylic pressure chamber (2,000 ml volume). A 95% O2-5% CO2 gas mixture was delivered through disposable plastic tubing with an infusion valve and a control dial on the lid of the pressure chamber and an air filter (Cat #SLGP033RS, Merck Millipore, Billerica, MA). The plastic tubing delivering the gas terminated 1 cm above the bottom of the beaker.
Acutely prepared eyecups were incubated in gassed aCSF for at least 1 h at 30° C. before pressure loading. In some experiments, AlloP (1 μM), ent-AlloP (1 μM), and 3-MA (10 mM) were dissolved in aCSF at the time of experiment and administered by bath perfusion. Eyecup preparations were treated with these drugs for 1 h at 30° C. before pressure loading. For pressure loading, the 95% O2-5% CO2 gas mixture was infused until the pressure reading given by a manometer reached the appropriate level. The pressure was then locked by adjusting the control dial of the effusion valve, and monitored continuously for 24 h at 30° C.
Preparation of whole mounted retinas and immunostaining—The retina was carefully detached from the eye by making cuts along the ora serrata and optic nerve. […] Each quadrant was analyzed using a 1 mm^2 frame, and counted using Image-Pro Plus software. […] RGC counts were analyzed using Image-Pro Plus software. NeuN positive RGCs were determined as the measurement of 5 different areas from three eyes per experimental condition.

TUNEL-positive RGCs = test: Ex vivo pressure-loaded retinas, TUNEL staining (apoptosis); assay type: cell-based, rat; conditions: 75 mmHg, 1 μM, single values
Description: Rat ex vivo Eyecup Preparation—Rat ex vivo eyecups were prepared from 28-32 day old male Sprague-Dawley rats (Charles River Laboratories International Inc., Wilmington, MA). The anterior half of the enucleated eyes was carefully removed to make eyecup preparations. Eyecups were placed at the bottom of a 100 ml glass beaker filled with aCSF (artificial cerebrospinal fluid) containing (in mM): 124 NaCl, 5 KCl, 2 MgSO4, 2 CaCl2, 1.25 NaH2PO4, 22 NaHCO3, and 10 glucose, and incubated at 30° C. for 24 hours using a closed pressure-loading system (FIG. 1C). pH was maintained at 7.35 to 7.40. […]
Acutely prepared eyecups were incubated in gassed aCSF for at least 1 h at 30° C. before pressure loading. […] For pressure loading, the 95% O2-5% CO2 gas mixture was infused until the pressure reading given by a manometer reached the appropriate level. The pressure was then locked by adjusting the control dial of the effusion valve, and monitored continuously for 24 h at 30° C.
Apoptosis—To visualize apoptotic cells, a DeadEnd™ Colorimetric TUNEL (TdT-mediated dUTP Nick-End Labeling) System (Promega, Madison, WI) was used according to the manufacturer's instructions. […] After the length of each retinal section was measured (Image-Pro Plus software), the cells were counted in the whole section length and the number of cells was normalized per 200 μm of retinal section. […]

[2] = system: mouse model of Niemann-Pick Type C disease; conditions: cited from earlier work
[3] = system: primary astrocyte cultures; conditions: cited from earlier work

Question: Which “RGC Survival (number of NeuN-positive cells), individual areas 1-5” value [1] does the source give for `CC(=O)[C@@H]1CC[C@@H]2[C@H]3CC[C@@H]4C[C@@H](O)CC[C@@]4(C)[C@@H]3CC[C@]21C` [ent-AlloP, ent-allopregnanolone] here?
Answer: The value was 2120 per square millimeter and 2280 per square millimeter and 2000 per square millimeter and 1840 per square millimeter and 1860 per square millimeter.

Question: What about the “TUNEL Staining (number of TUNEL-positive RGCs), individual areas 1-5” value (TUNEL-positive RGCs) of the same compound?
Answer: Its value is 10 per 200 μm of retina section and 1 per 200 μm of retina section and 0 per 200 μm of retina section (2×) and 2 per 200 μm of retina section.

Question: For `CC(=O)[C@H]1CC[C@H]2[C@@H]3CC[C@H]4C[C@H](O)CC[C@]4(C)[C@H]3CC[C@]12C` [AlloP, allopregnanolone], which “RGC Survival (number of NeuN-positive cells), Average” value ([1]; Average of 5) is on record?
Answer: Its value is 2084.0 per square millimeter.

Question: And the “RGC Survival (number of NeuN-positive cells), individual areas 1-5” value [1]?
Answer: Its value is 2220 per square millimeter and 2240 per square millimeter and 1860 per square millimeter and 2260 per square millimeter and 1840 per square millimeter.

Question: What about the “TUNEL Staining (number of TUNEL-positive RGCs), individual areas 1-5” value (TUNEL-positive RGCs) of the same compound?
Answer: The value was 7 per 200 μm of retina section and 0 per 200 μm of retina section (3×) and 2 per 200 μm of retina section.

Question: And the autophagy [2]?
Answer: Its autophagy is “activate autophagy”.

Question: And the autophagy [3]?
Answer: The autophagy was “activate autophagy”.
